Laboratory results taken from PubChem BioAssay AID1963964 (Molecular Pharmacology Branch, DTP, NCI, 2024).
pIC50: −log10 of the molar value.

System: 997726-040-R-J2-PDC tumor spheroids, viability
Test: Anticancer human tumor 997726-040-R-J2-PDC patient-derived squamous cell lung carcinoma cell line growth inhibition [PI3K]
Details: spheroids with HUVEC and MSC; for pIC50: curve of first compound; for viability, T/C: stronger effect = lower value
Procedure, shortened: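 High-throughput combination screen: PI3K inhibitors crossed with targeted small molecules on complex spheroids of tumor cells, HUVEC and MSCs at 37 degrees C, 5% CO2. Top concentration was at or near clinical Cmax (otherwise 10 microM), with half-log decrements.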

[1] = second compound 0.0316 µM, first compound 0.0316 µM
[2] = second compound 0.0316 µM, first compound 0.1 µM
[3] = second compound 0.0316 µM, first compound 0.316 µM
[4] = second compound 0.0316 µM, first compound 1 µM
[5] = second compound 0.1 µM, first compound 0.0316 µM
[6] = second compound 0.1 µM, first compound 0.1 µM
[7] = second compound 0.1 µM, first compound 0.316 µM
[8] = second compound 0.1 µM, first compound 1 µM
[9] = second compound 0.316 µM, first compound 0.0316 µM
[10] = second compound 0.316 µM, first compound 0.1 µM
[11] = second compound 0.316 µM, first compound 0.316 µM
[12] = second compound 0.316 µM, first compound 1 µM
[13] = second compound 1 µM, first compound 0.0316 µM
[14] = second compound 1 µM, first compound 0.1 µM
[15] = second compound 1 µM, first compound 0.316 µM
[16] = second compound 1 µM, first compound 1 µM
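Note: spheroids exposed to compounds for seven days before readout.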

## CCN1CCN(Cc2ccc(Nc3ncc(F)c(-c4cc(F)c5nc(C)n(C(C)C)c5c4)n3)nc2)CC1 + Cc1nc(NC(=O)N2CCCC2C(N)=O)sc1-c1ccnc(C(C)(C)C(F)(F)F)c1
Second compound 0.0316 µM
  pIC50: < 6.00
Second compound 0.1 µM
  pIC50: 6.33
Second compound 0.316 µM
  pIC50: 8.13
Second compound 1 µM
  pIC50: > 8.50
Second compound 3.16 µM
  pIC50: > 8.50
Second compound 10 µM
  pIC50: > 8.50
Second compound 0.0316 µM, first compound 0.00316 µM
  viability, T/C: 82.8%
Second compound 0.0316 µM, first compound 0.01 µM
  viability, T/C: 79.5%
[1]
  viability, T/C: 61.5%
[2]
  viability, T/C: 69.5%
[3]
  viability, T/C: 58.3%
[4]
  viability, T/C: 59.8%
Second compound 0.1 µM, first compound 0.00316 µM
  viability, T/C: 76.7%
Second compound 0.1 µM, first compound 0.01 µM
  viability, T/C: 71.1%
[5]
  viability, T/C: 67.3%
[6]
  viability, T/C: 55.2%
[7]
  viability, T/C: 52.3%
[8]
  viability, T/C: 46.3%
Second compound 0.316 µM, first compound 0.00316 µM
  viability, T/C: 52.5%
Second compound 0.316 µM, first compound 0.01 µM
  viability, T/C: 51.8%
[9]
  viability, T/C: 45%
[10]
  viability, T/C: 39%
[11]
  viability, T/C: 37.1%
[12]
  viability, T/C: 41.1%
Second compound 1 µM, first compound 0.00316 µM
  viability, T/C: 40.8%
Second compound 1 µM, first compound 0.01 µM
  viability, T/C: 39.5%
[13]
  viability, T/C: 37%
[14]
  viability, T/C: 30.9%
[15]
  viability, T/C: 29%
[16]
  viability, T/C: 33.8%
Second compound 3.16 µM, first compound 0.00316 µM
  viability, T/C: 29.9%
Second compound 3.16 µM, first compound 0.01 µM
  viability, T/C: 27%
Second compound 3.16 µM, first compound 0.0316 µM
  viability, T/C: 26%
Second compound 3.16 µM, first compound 0.1 µM
  viability, T/C: 22.9%
Second compound 3.16 µM, first compound 0.316 µM
  viability, T/C: 23.4%
Second compound 3.16 µM, first compound 1 µM
  viability, T/C: 19.5%
Second compound 10 µM, first compound 0.00316 µM
  viability, T/C: 16.9%
Second compound 10 µM, first compound 0.01 µM
  viability, T/C: 12.3%
Second compound 10 µM, first compound 0.0316 µM
  viability, T/C: 10.3%
Second compound 10 µM, first compound 0.1 µM
  viability, T/C: 10.9%
Second compound 10 µM, first compound 0.316 µM
  viability, T/C: 11.9%
Second compound 10 µM, first compound 1 µM
  viability, T/C: 11.2%

## Cn1ncc(Cl)c1-c1cc(C(=O)NC(CN)Cc2cccc(F)c2)sc1Cl (centres undefined) + COc1c(OCCCN2CCOCC2)ccc2c3n(c(=NC(=O)c4cnc(N)nc4)nc12)CCN3
Second compound 0.00316 µM
  pIC50: 7.27
Second compound 0.01 µM
  pIC50: > 7.50
Second compound 0.0316 µM
  pIC50: > 7.50
Second compound 0.1 µM
  pIC50: > 7.50
Second compound 0.316 µM
  pIC50: > 7.50
Second compound 1 µM
  pIC50: > 7.50
Second compound 0.00316 µM, first compound 0.0316 µM
  viability, T/C: 55.2%
Second compound 0.00316 µM, first compound 0.1 µM
  viability, T/C: 43.9%
Second compound 0.00316 µM, first compound 0.316 µM
  viability, T/C: 25.2%
Second compound 0.00316 µM, first compound 1 µM
  viability, T/C: 15.7%
Second compound 0.00316 µM, first compound 3.16 µM
  viability, T/C: 9.84%
Second compound 0.00316 µM, first compound 10 µM
  viability, T/C: 10.3%
Second compound 0.01 µM, first compound 0.0316 µM
  viability, T/C: 46.3%
Second compound 0.01 µM, first compound 0.1 µM
  viability, T/C: 39%
Second compound 0.01 µM, first compound 0.316 µM
  viability, T/C: 21.6%
Second compound 0.01 µM, first compound 1 µM
  viability, T/C: 12.4%
Second compound 0.01 µM, first compound 3.16 µM
  viability, T/C: 7.68%
Second compound 0.01 µM, first compound 10 µM
  viability, T/C: 10.1%
[1]
  viability, T/C: 30.6%
[2]
  viability, T/C: 28%
[3]
  viability, T/C: 20%
[4]
  viability, T/C: 10.6%
Second compound 0.0316 µM, first compound 3.16 µM
  viability, T/C: 8.98%
Second compound 0.0316 µM, first compound 10 µM
  viability, T/C: 7.48%
[5]
  viability, T/C: 21.4%
[6]
  viability, T/C: 19.4%
[7]
  viability, T/C: 12.5%
[8]
  viability, T/C: 8.76%
Second compound 0.1 µM, first compound 3.16 µM
  viability, T/C: 8.67%
Second compound 0.1 µM, first compound 10 µM
  viability, T/C: 5.52%
[9]
  viability, T/C: 4.97%
[10]
  viability, T/C: 5.24%
[11]
  viability, T/C: 3.32%
[12]
  viability, T/C: 4.64%
Second compound 0.316 µM, first compound 3.16 µM
  viability, T/C: 4.59%
Second compound 0.316 µM, first compound 10 µM
  viability, T/C: 3.13%
[13]
  viability, T/C: 1.15%
[14]
  viability, T/C: 1.24%
[15]
  viability, T/C: 1.45%
[16]
  viability, T/C: 1.8%
Second compound 1 µM, first compound 3.16 µM
  viability, T/C: 2.57%
Second compound 1 µM, first compound 10 µM
  viability, T/C: 0.94%
